Measured values published in US10154989B2, “Methods of managing graft versus host disease (GvHD) using indole carboxyaldehydes or derivatives thereof” (Emory University, priority 2015, dated 2018).
Entries after “also recorded” stand apart in the source; their conditions may differ.

Experiments:
Format in all cases: in vivo
[1] = tested on: GvHD in B10.BR (H2k) mice transplanted with TCD-BM+T cells; assay: GvHD model: lethally irradiated B10.BR mice given TCD-BM plus 2×10^6 B6 T cells, daily ICA gavage
Experimental: Lethally irradiated B10.BR (H2k) mice were transplanted with 3×10^6 T cell depleted bone marrow cells (TCD-BM) alone or the combination of TCD-BM plus 2×10^6 purified T cells from B6 (H2b) donor mice. Mice received daily gavage with 100 mg/kg or 150 mg/kg ICA or vehicle through day 38 post-transplant. Survival and clinical manifestations of GvHD were monitored through day 62. Histopathology of the gut, cytokines in serum and colon homogenates, intracellular cytokine staining of donor T-cells and bacterial counts in mesenteric lymph nodes (using blood agar plates) were measured in a separate cohort of experimental mice euthanized on day 20. Additionally, a secondary transplant was conducted to test the allo-proliferative capacity (in vivo CFSE dilution assay) and GvHD activity of T-cells from spleens of mice in the TCD-BM+T cells+150 mg/kg ICA group that survived to day 62, compared to B6 T cells, in combination with fresh B6 TCD-BM, in B10.BR recipients.
They were fed vehicle, 100 mg/kg/day of ICA, or 150 mg/kg/day of ICA by oral gavage. Only 7% of the recipients of TCD-BM+T cells treated with vehicle only survived to day 46.

[2] = tested on: GvHD in B10.BR mice administered TCDBM+T cells; assay: GvHD model: 11Gy TBI B10.BR mice given TCDBM plus 3×10^6 allo-MHC mismatched C57Bl/6 T cells
Experimental: B6,B10.BR allo MHC mismatched transplants, administering 3×10^6 MHC mismatched donor T cells following myeloablative irradiation with 11Gy that injures gut epithelia. […] ICA (150 mg/kg/d) p.o. QD.
The gut microbiota contribute to GvHD, yet some Lactobacillus species, which produce ICA and related molecules, mitigate GvHD. Thus, depending on the composition of the microbiota, molecules derived from it might protect from GvHD or exacerbate it. ICA might limit GvHD, by regulating barrier integrity. A myeloablative dose of total body irradiation (TBI) (11Gy) was administered to B10.BR mice, an established murine model of GvHD, in which followed by transplantation of T cell depleted bone marrow (TCDBM) plus/or minus 3×10^6 allo-MHC mismatched T cells all from donor C57Bl/6 mice. Mice administered TCDBM+T cells consistently developed GvHD, increased apoptosis and crypt hyperplasia in the colon (e.g. FIG. 4C), bacterial dissemination to mesenteric lymph nodes (FIG. 4B), increased Th17 responses, and 90% lethality by 30 days (FIG. 4A). […] Thus, ICA protects against GvHD.

[3] = tested on: radiation-induced enteritis in mice; assay: Radiation enteritis: 12Gy TBI without BM transplant
Description: Mice were subjected to 12Gy TBI without BM transplant, a lethal model in which most animals succumb to radiation-induced enteritis by about 7 days post-irradiation (p.i.), as opposed to hematopoietic failure at about 14 days p.i. […] (FIG. 5C). Thus, ICA reduced the death rate of both colonic and hematopoietic stem cells. […] While reduced intestinal damage and improved repair likely accounts at least in part for initial improvement in GvHD animals, additional effects on immune tolerance were also evident, but only over very long periods of administration (>3 months).

C. rodentium = assay: Infectious colitis: ICA given to mice infected with C. rodentium
Experimental: Indoles were assessed in models of epithelial barrier integrity and immune regulation in mammals. Pathogenic E. coli (EPEC and EHEC) and the related mouse pathogen C. rodentium encode virulence factors and a Type III secretion system through the LEE pathogenicity island, and cause diarrhea and colitis. In vivo, C. rodentium causes infectious colitis, characterized by neutrophil and T cell infiltration into the lamina propria, transient increases in IL-22, epithelial barrier breakdown, crypt hyperplasia (an indicator of repair), and dissemination of bacteria throughout the body. […] Thus, indole derivatives, produced via commensal E. coli TnaA, mitigate pathogen infection. ICA was administered to mice that were infected with C. rodentium.

[4] = ICA-treated recipients of TCD-BM+T cells
[5] = mice infected with C. rodentium

## O=Cc1c[nH]c2ccccc12 [ICA, indole-3-carboxaldehyde]
[1]; 100 mg/kg/day ICA oral gavage, at day 52, p=0.009
  survival of recipients of TCD-BM+T cells: 20%
[1]; 150 mg/kg/day ICA oral gavage, p<0.001
  survival of recipients of TCD-BM+T cells: 83%
[1]; [4]
  levels of inflammatory cytokines: decreased levels of inflammatory cytokines
  thymopoiesis: improved thymopoiesis
[1]; T cells recovered at day 62 from ICA-treated recipients
  GvHD activity of recovered T cells in secondary B10.BR recipients: lack of GvHD activity
[1]; T cells recovered at day 62 from ICA-treated recipients, secondary B10.BR recipients
  proliferation of CFSE-stained T cells in secondary transplant: reduced proliferation
[1]; daily doses of ICA, 100 or 150 mg/kg/day
  GvHD mortality / survival, in words: improved survival in a dose-dependent manner; also recorded: reduces GvHD mortality in a dose-dependent manner
[1]; fed to transplant recipients for the first few weeks after transplant
  engraftment by allogeneic donor bone marrow: allows normal engraftment
[1]; recipients of BM grafts without GvHD-causing T-cells
  tolerability / toxicity: well tolerated without serious toxicity
[1]; vs vehicle-treated control animals
  GvHD pathology, histological analysis of colonic tissue: marked reduction of GvHD pathology
[1]; vs vehicle-treated control animals, p<0.01
  bacterial colonization of mesenteric lymph nodes (MLN): decreased bacterial colonization; also recorded: reduce bacterial colonization
[2]; ICA p.o. 150 mg/kg QD
  bacterial dissemination to mesenteric lymph nodes: abrogated
  colon damage: abrogated
  effect on liver GvHD: without effect
[2]; ICA p.o. 150 mg/kg QD, animals receiving TCDBM+T cells
  animals in which weight loss and death were prevented: 90%
[2]; after long-term treatment (50 days)
  tolerance of donor C57Bl/6 T cells to B10.BR antigens: irreversibly and permanently tolerant
[2]; after long-term treatment (50 days), upon secondary transplantation
  response of donor T cells to allo-antigens other than B10.BR or C57Bl/6: remain responsive
[2]; untreated animals all succumbed to GvHD
  survival of mice with transplanted allogeneic T cells: 90%
[3]; 12Gy TBI without BM transplant, extended from 7 days
  mean survival time: 12 days p.i.
[3]; at 6 hr p.i.
  apoptotic cells in the colon: fewer apoptotic cells; also recorded: decrease
[3]; at 4 days p.i.
  hematopoietic cells in the marrow: increased numbers; also recorded: enhances survival of hematopoietic progenitors
[3]; no BM transplant
  survival from radiation, in words: promotes survival
C. rodentium; ICA 150 mg/kg/d p.o., C. rodentium infected MyD88−/− mice, compared to vehicle
  survival: enhances survival
C. rodentium; [5]
  barrier integrity: maintained barrier integrity
  survival: prolonged survival
